# Experimental data as given in patent US20260209215A1, “GLYCINE DERIVATIVES WITH P2X4 RECEPTOR-BLOCKING ACTIVITY AS DIAGNOSTICS AND FOR THE TREATMENT OF PAIN, INFLAMMATION, CANCER, AND OTHER P2X4 RECEPTOR-RELATED DISEASES” (RHEINISCHE-FRIEDRICH-WILHELMS-UNIVERSITÄT BONN, priority 2022, published 2026).
# pIC50: −log10 of the molar value.
# Target: T1, P2X4 receptor (Homo sapiens, UniProt Q99571)
# T1 construct: expressed in transfected cells; host or cells: 1321N1 astrocytoma cells, retroviral vector pQCXIN, G418 selection, monoclones
# T1 sequence (Q99571 1-388): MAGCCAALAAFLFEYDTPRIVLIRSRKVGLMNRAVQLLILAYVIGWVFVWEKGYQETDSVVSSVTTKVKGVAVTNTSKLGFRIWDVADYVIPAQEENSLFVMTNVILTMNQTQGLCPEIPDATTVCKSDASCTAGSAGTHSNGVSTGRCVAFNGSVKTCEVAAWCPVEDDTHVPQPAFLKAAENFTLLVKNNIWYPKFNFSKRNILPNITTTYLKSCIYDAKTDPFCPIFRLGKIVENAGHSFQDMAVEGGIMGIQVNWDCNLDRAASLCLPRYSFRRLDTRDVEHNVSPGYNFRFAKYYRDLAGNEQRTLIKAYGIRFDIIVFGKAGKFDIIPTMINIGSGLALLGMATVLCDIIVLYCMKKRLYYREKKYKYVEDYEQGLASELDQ
# Experiment: Measurement of Ca2+ influx in transfected 1321N1 astrocytoma cells (P2X4 inhibitory potency)
# Type: cell-based
# Details: agonist-mediated Ca2+ influx, FLUO-4, 1321N1 astrocytoma cells; antagonists added 30 min before agonist
# Method in brief: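 Stable 1321N1 astrocytoma cells expressing human P2X4, loaded with FLUO-4 AM (2.4 μM) in HBSS/HEPES pH 7.3 for 1 h at 23 °C. Antagonists added 30 min before agonist; fluorescence at 520 nm recorded for 30 s. Compounds tested at 7–8 concentrations spanning three log units.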
row,Compound,pIC50
1,"CCc1nsc(-c2ccc(C)c(NCC(=O)N3CCc4c(N5CC(O)C5)cccc43)c2)n1 [Example 66, 2-((5-(3-ethyl-1,2,4-thiadiazol-5-yl)-2-methylphenyl)amino)-1-(4-(3-hydroxyazetidin-1-yl)indolin-1-yl)ethan-1-one]",7.41 to 7.70
2,"Cc1nsc(-c2ccc(C)c(NCC(=O)N3CCc4c3cccc4C(C)(C)OC(=O)C(O)CO)c2)n1 (stereo not shown) [Example 67, 2-(1-((2-methyl-5-(3-methyl-1,2,4-thiadiazol-5-yl)phenyl)glycyl)indolin-4-yl)propan-2-yl 2,3-dihydroxy-propanoate]",7.41 to 7.70
3,"Cc1nsc(-c2ccc(C)c(NCC(=O)N3CCc4c(N5CCC(O)C5)cccc43)c2)n1 (stereo not shown) [Example 68, 1-(4-(3-hydroxypyrrolidin-1-yl)indolin-1-yl)-2-((2-methyl-5-(3-methyl-1,2,4-thiadiazol-5-yl)phenyl)amino)ethan-1-one]",7.41 to 7.70
4,"Cc1nsc(-c2ccc(C)c(NCC(=O)N3CCc4c(CS(C)(=N)=O)cccc43)c2)n1 (stereo not shown) [Example 69, imino(methyl)((1-((2-methyl-5-(3-methyl-1,2,4-thiadiazol-5-yl)phenyl)glycyl)indolin-4-yl)methyl)sulfanone]",< 7.00
5,"Cc1nsc(-c2ccc(C)c(NCC(=O)N3CCc4c(-c5cc[nH]n5)cccc43)c2)n1 [Example 70, 1-(4-(1H-pyrazol-3-yl)indolin-1-yl)-2-((2-methyl-5-(3-methyl-1,2,4-thiadiazol-5-yl)phenyl)amino)ethan-1-one]",7.72 to 10.00
6,"CCc1nsc(-c2ccc(F)c(NCC(=O)N3CCc4c(N5CCC(O)C5)cccc43)c2)n1 (stereo not shown) [Example 71, 2-((5-(3-ethyl-1,2,4-thiadiazol-5-yl)-2-fluorophenyl)amino)-1-(4-(3-hydroxypyrrolidin-1-yl)indolin-1-yl)ethan-1-one]",7.72 to 10.00
7,"CCc1nsc(-c2ccc(C)c(NCC(=O)N3CCc4c(N5CCNCC5)cccc43)c2)n1 [Example 72, 2-((5-(3-ethyl-1,2,4-thiadiazol-5-yl)-2-methylphenyl)amino)-1-(4-(piperazin-1-yl)indolin-1-yl)ethan-1-one]",7.41 to 7.70
8,"Cc1ccc(-c2ccc(C)c(NCC(=O)N3CCc4c(-c5c[nH]cn5)cccc43)c2)o1 [Example 73, 1-(4-(1H-imidazol-4-yl)indolin-1-yl)-2-((2-methyl-5-(5-methylfuran-2-yl)phenyl)amino)ethan-1-one]",7.16 to 7.40
9,"Cc1nsc(-c2ccc(C)c(NCC(=O)N3CCc4c(N)cccc43)c2)n1 [Example 74, 1-(4-aminoindolin-1-yl)-2-((2-methyl-5-(3-methyl-1,2,4-thiadiazol-5-yl)phenyl)amino)ethan-1-one]",7.41 to 7.70
10,"Cc1noc(-c2ccc(F)c(NCC(=O)N3CCc4c(N)cccc43)c2)n1 [Example 75, 1-(4-aminoindolin-1-yl)-2-((2-fluoro-5-(3-methyl-1,2,4-oxadiazol-5-yl)phenyl)-amino)ethan-1-one]",7.00 to 7.15
11,"CC(=O)Nc1cccc2c1CCN2C(=O)CNc1cc(-c2nc(C)ns2)ccc1C [Example 76, N-(1-((2-methyl-5-(3-methyl-1,2,4-thiadiazol-5-yl)phenyl)-glycyl)indolin-4-yl) acetamide]",7.72 to 10.00
12,"CC(=O)N(c1cccc2c1CCN2C(=O)CNc1cc(-c2nc(C)ns2)ccc1C)S(C)(=O)=O [Example 77, N-(1-((2-methyl-5-(3-methyl-1,2,4-thiadiazol-5-yl)phenyl)-glycyl)indolin-4-yl)-N-(methylsulfonyl)acetamide]",7.41 to 7.70
13,"Cc1nsc(-c2ccc(C)c(NCC(=O)N3CCc4c3cccc4N(S(C)(=O)=O)S(C)(=O)=O)c2)n1 [Example 78, N-(1-((2-methyl-5-(3-methyl-1,2,4-thiadiazol-5-yl)phenyl)glycyl)indolin-4-yl)-N-(methylsulfonyl) methanesulfonamide]",7.72 to 10.00
14,"Cc1nsc(-c2ccc(C)c(NCC(=O)N3CCc4c3cccc4N3C(=O)C=CC3=O)c2)n1 [Example 79, 1-(1-((2-methyl-5-(3-methyl-1,2,4-thiadiazol-5-yl)phenyl)-glycyl)indolin-4-yl)-1H-pyrrole-2,5-dione]",7.72 to 10.00
15,"Cc1nsc(-c2ccc(C)c(NCC(=O)N3CCc4c3cccc4N3C(=O)CC(N)C3=O)c2)n1 (stereo not shown) [Example 80, 3-amino-1-(1-((2-methyl-5-(3-methyl-1,2,4-thiadiazol-5-yl)phenyl)glycyl)indolin-4-yl) pyrrolidine-2,5-dione]",7.72 to 10.00
16,"Cc1nsc(-c2ccc(C)c(NCC(=O)N3CCc4c(NC(=O)[C@H]5CCCN5)cccc43)c2)n1 [Example 81, (R)-N-(1-((2-methyl-5-(3-methyl-1,2,4-thiadiazol-5-yl)phenyl)glycyl)indolin-4-yl) pyrrolidine-2-carboxamide]",7.72 to 10.00

row,Compound,pIC50
1,"Cc1nsc(-c2ccc(C)c(NCC(=O)N3CCc4c(NC(=O)[C@H](O)[C@@H](O)C(=O)O)cccc43)c2)n1 [Example 82, (2R,3R)-2,3-dihydroxy-4-((1-((2-methyl-5-(3-methyl-1,2,4-thiadiazol-5-yl)phenyl)-glycyl)indolin-4-yl)amino)-4-oxobutanoic acid]",7.00 to 7.15
2,"Cc1noc(-c2ccc(C)c(NCC(=O)N3CCc4c3cccc4N3C(=O)CNC3=O)c2)n1 [Example 83, 3-(1-((2-methyl-5-(3-methyl-1,2,4-oxadiazol-5-yl)phenyl)glycyl)indolin-4-yl)imidazolidine-2,4-dione]",7.41 to 7.70
3,"CCc1nsc(-c2ccc(C)c(NCC(=O)N3CCc4c(O)cccc43)c2)n1 [Example 84, 2-((5-(3-ethyl-1,2,4-thiadiazol-5-yl)-2-methylphenyl)amino)-1-(4-hydroxyindolin-1-yl) ethan-1-one]",7.72 to 10.00
4,"Cc1nsc(-c2ccc(C)c(NCC(=O)N3CCc4c(O)cccc43)c2)n1 [Example 85, 1-(4-hydroxyindolin-1-yl)-2-((2-methyl-5-(3-methyl-1,2,4-thiadiazol-5-yl)phenyl)-amino)ethan-1-one]",7.72 to 10.00
5,"Cc1noc(-c2ccc(C)c(NCC(=O)N3CCc4c(O)cccc43)c2)n1 [Example 86, 1-(4-hydroxyindolin-1-yl)-2-((2-methyl-5-(3-methyl-1,2,4-oxadiazol-5-yl)phenyl)amino)-ethan-1-one]",7.16 to 7.40
6,"CCc1nsc(-c2ccc(C)c(NCC(=O)N3CCc4c(OC(F)(F)C(=O)O)cccc43)c2)n1 [Example 87, 2-((1-((5-(3-ethyl-1,2,4-thiadiazol-5-yl)-2-methyl-phenyl)glycyl)indolin-4-yl)oxy)-2,2-difluoro-acetic acid]",7.16 to 7.40
7,"Cc1nsc(-c2ccc(C)c(NCC(=O)N3CCc4c(C(N)C(F)(F)F)cccc43)c2)n1 (stereo not shown) [Example 88, 1-(4-(1-amino-2,2,2-trifluoroethyl)indolin-1-yl)-2-((2-methyl-5-(3-methyl-1,2,4-thiadiazol-5-yl)phenyl)-amino)ethan-1-one]",7.16 to 7.40
8,"Cc1noc(-c2ccc(C)c(NCC(=O)N3CCc4c(C(N)C(F)(F)F)cccc43)c2)n1 (stereo not shown) [Example 89, 1-(4-(1-amino-2,2,2-trifluoroethyl)indolin-1-yl)-2-((2-methyl-5-(3-methyl-1,2,4-oxadiazol-5-yl)phenyl)-amino)ethan-1-one]",7.00 to 7.15
9,"Cc1nsc(-c2ccc(C)c(NCC(=O)N3CCc4c3ccnc4C(C)(C)O)c2)n1 [Example 90, 1-(4-(2-Hydroxypropan-2-yl)-2,3-dihydro-1H-pyrrolo[3,2-c]pyridin-1-yl)-2-((2-methyl-5-(3-methyl-1,2,4-thiadiazol-5-yl)phenyl)amino)ethan-1-one]",< 7.00
10,"Cc1nsc(-c2ccc(C)c(NCC(=O)N3CCc4c3cncc4C(C)(C)O)c2)n1 [Example 91, 1-(4-(2-Hydroxypropan-2-yl)-2,3-dihydro-1H-pyrrolo[2,3-c]pyridin-1-yl)-2-((2-methyl-5-(3-methyl-1,2,4-thiadiazol-5-yl)phenyl)amino)ethan-1-one]",< 7.00
11,"Cc1nsc(-c2ccc(C)c(NCC(=O)N3CCc4c3ccnc4C(C)O)c2)n1 (stereo not shown) [Example 92, 1-(4-(1-hydroxyethyl)-2,3-dihydro-1H-pyrrolo[3,2-c]pyridin-1-yl)-2-((2-methyl-5-(3-methyl-1,2,4-thiadiazol-5-yl)phenyl)amino)ethan-1-one]",< 7.00
12,"COc1ccc(-c2nc(C)ns2)cc1NCC(=O)c1c[nH]c2c(OC)cccc12 [Example 93, 1-(7-methoxy-1H-indol-3-yl)-2-((2-methoxy-5-(3-methyl-1,2,4-thiadiazol-5-yl)phenyl)-amino)ethan-1-one]",7.72 to 10.00
13,"COc1cc2[nH]cc(C(=O)CNc3cc(-c4nc(C)ns4)ccc3OC)c2cc1F [Example 94, 1-(5-fluoro-6-methoxy-1H-indol-3-yl)-2-((2-methoxy-5-(3-methyl-1,2,4-thiadiazol-5-yl)phenyl)amino)ethan-1-one]",7.72 to 10.00
14,"COc1ccc2c(C(=O)CNc3cc(-c4nc(C)ns4)ccc3C)c[nH]c2n1 [Example 95, 1-(6-methoxy-1H-pyrrolo[2,3-b]pyridin-3-yl)-2-((2-methyl-5-(3-methyl-1,2,4-thiadiazol-5-yl)phenyl)amino)ethan-1-one]",7.72 to 10.00
15,"CCc1noc(-c2ccc(OC)c(NCC(=O)c3c[nH]c4cc(OC)ccc34)c2)n1 [Example 96, 2-((5-(3-ethyl-1,2,4-oxadiazol-5-yl)-2-methoxyphenyl)amino)-1-(6-methoxy-1H-indol-3-yl)ethan-1-one]",7.72 to 10.00
